Test results taken from patent publication US8461083B2, “Herbicidal compounds” (Syngenta Limited, priority 2008, dated 2013).

Tests used:
Format in all cases: in vivo
[1] = tested on: Alopecurus myosuroides (ALOMY); assay: Post-emergence herbicidal glasshouse test; conditions: post-emergence (sprayed after 8 days cultivation), evaluated after 13 days, 100=total damage to plant, 0=no damage to plant; for pest or weed control at 1000 g/ha: Alopecurus myosuroides, 312 h, read-out: POST Application ALOMY, damage to plant; for POST Application ALOMY, damage to plant: 1000 g/ha
How it was run: (§1)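 Spray at 1000 g/ha, acetone/water 50:50 + 0.5% Tween 20; pre-em 1 d post-sowing, post-em 8 d post-sowing. Glasshouse 24/16 °C, 14 h light, 65% RH, watered twice daily. Visual damage score 0–100 at 13 d.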

[2] = tested on: Amaranthus retoflexus (AMARE); assay: Post-emergence herbicidal glasshouse test; conditions: post-emergence (sprayed after 8 days cultivation), evaluated after 13 days, 100=total damage to plant, 0=no damage to plant; for pest or weed control at 1000 g/ha: Amaranthus retroflexus, 312 h, read-out: POST Application AMARE, damage to plant; for POST Application AMARE, damage to plant: 1000 g/ha
How it was run: as §1

[3] = tested on: Echinochloa crus-galli (ECHCG); assay: Post-emergence herbicidal glasshouse test; conditions: post-emergence (sprayed after 8 days cultivation), evaluated after 13 days, 100=total damage to plant, 0=no damage to plant; for pest or weed control at 1000 g/ha: Echinochloa crus-galli, 312 h, read-out: POST Application ECHCG, damage to plant; for POST Application ECHCG, damage to plant: 1000 g/ha
How it was run: (§2)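 Sow in standard soil; grow 1 d (pre-emergence) or 8 d (post-emergence) at 24/16 °C, 14 h light, 65% humidity. Spray test compound at 1000 g/ha in aqueous acetone (50:50) with 0.5% Tween 20. Grow on under the same conditions and score injury (0–100) after 13 days.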

Setaria faberi (SETFA) [4] = assay: Post-emergence herbicidal glasshouse test; conditions: post-emergence (sprayed after 8 days cultivation), evaluated after 13 days, 100=total damage to plant, 0=no damage to plant; for pest or weed control at 1000 g/ha: Setaria faberi, 312 h, read-out: POST Application SETFA, damage to plant; for POST Application SETFA, damage to plant: 1000 g/ha
How it was run: as §1

Solanum nigrum (SOLNI) [5] = assay: Post-emergence herbicidal glasshouse test; conditions: post-emergence (sprayed after 8 days cultivation), evaluated after 13 days, 100=total damage to plant, 0=no damage to plant; for pest or weed control at 1000 g/ha: Solanum nigrum, 312 h, read-out: POST Application SOLNI, damage to plant; for POST Application SOLNI, damage to plant: 1000 g/ha
How it was run: as §1

[6] = tested on: Alopecurus myosuroides (ALOMY); assay: Pre-emergence herbicidal glasshouse test; conditions: pre-emergence (sprayed after one day cultivation), evaluated after 13 days, 100=total damage to plant, 0=no damage to plant; for pest or weed control at 1000 g/ha: Alopecurus myosuroides, 312 h, read-out: PRE Application ALOMY, damage to plant; for PRE Application ALOMY, damage to plant: 1000 g/ha
How it was run: as §1

[7] = tested on: Amaranthus retoflexus (AMARE); assay: Pre-emergence herbicidal glasshouse test; conditions: pre-emergence (sprayed after one day cultivation), evaluated after 13 days, 100=total damage to plant, 0=no damage to plant; for pest or weed control at 1000 g/ha: Amaranthus retroflexus, 312 h, read-out: PRE Application AMARE, damage to plant; for PRE Application AMARE, damage to plant: 1000 g/ha
How it was run: as §1

[8] = tested on: Echinochloa crus-galli (ECHCG); assay: Pre-emergence herbicidal glasshouse test; conditions: pre-emergence (sprayed after one day cultivation), evaluated after 13 days, 100=total damage to plant, 0=no damage to plant; for pest or weed control at 1000 g/ha: Echinochloa crus-galli, 312 h, read-out: PRE Application ECHCG, damage to plant; for PRE Application ECHCG, damage to plant: 1000 g/ha
How it was run: as §2

Setaria faberi (SETFA) [9] = assay: Pre-emergence herbicidal glasshouse test; conditions: pre-emergence (sprayed after one day cultivation), evaluated after 13 days, 100=total damage to plant, 0=no damage to plant; for pest or weed control at 1000 g/ha: Setaria faberi, 312 h, read-out: PRE Application SETFA, damage to plant; for PRE Application SETFA, damage to plant: 1000 g/ha
How it was run: as §1

Solanum nigrum (SOLNI) [10] = assay: Pre-emergence herbicidal glasshouse test; conditions: pre-emergence (sprayed after one day cultivation), evaluated after 13 days, 100=total damage to plant, 0=no damage to plant; for pest or weed control at 1000 g/ha: Solanum nigrum, 312 h, read-out: PRE Application SOLNI, damage to plant; for PRE Application SOLNI, damage to plant: 1000 g/ha
How it was run: as §1

SMILES | pest or weed control at 1000 g/ha [1] | pest or weed control at 1000 g/ha [2] | pest or weed control at 1000 g/ha [3] | pest or weed control at 1000 g/ha (Setaria faberi (SETFA) [4]) | pest or weed control at 1000 g/ha (Solanum nigrum (SOLNI) [5]) | pest or weed control at 1000 g/ha [6] | pest or weed control at 1000 g/ha [7] | pest or weed control at 1000 g/ha [8] | pest or weed control at 1000 g/ha (Setaria faberi (SETFA) [9]) | pest or weed control at 1000 g/ha (Solanum nigrum (SOLNI) [10]) | POST Application ALOMY, damage to plant [1] | POST Application AMARE, damage to plant [2] | POST Application ECHCG, damage to plant [3] | POST Application SETFA, damage to plant (Setaria faberi (SETFA) [4]) | POST Application SOLNI, damage to plant (Solanum nigrum (SOLNI) [5]) | PRE Application ALOMY, damage to plant [6] | PRE Application AMARE, damage to plant [7] | PRE Application ECHCG, damage to plant [8] | PRE Application SETFA, damage to plant (Setaria faberi (SETFA) [9]) | PRE Application SOLNI, damage to plant (Solanum nigrum (SOLNI) [10])
CCOc1ccc2cc(C(=O)C3=C(OC(=O)C(C)C)CCCC3=O)c(C(F)(F)F)nc2n1 [Compound 4.19, isobutyric acid 2-(7-ethoxy-2-trifluoromethyl-[1,8]-naphthyridine-3-carbonyl)-3-oxo-cyclohex-1-enyl ester] | 80% | 70% | 80% | 90% | 90% | 70% | 100% | 100% | 100% | 100% | – | – | – | – | – | – | – | – | – | –
Cc1nc2nc(C(F)(F)F)c(C(=O)C3C(=O)CCCC3=O)cc2c(C)c1F [Compound 1.88, 2-[5,7-dimethyl-6-fluoro-2-trifluoromethyl-[1,8]-naphthyridine-3-carbony]-cyclohexane-1,3-dione] | 30% | 100% | 90% | 80% | 90% | 40% | 90% | 100% | 100% | 100% | – | – | – | – | – | – | – | – | – | –
O=C(c1cc2cc(F)c(O)nc2nc1C(F)(F)F)C1C(=O)C2CCC(C2)C1=O (stereo not drawn) [Compound 3.1] | 60% | 80% | 70% | 80% | 80% | 60% | 100% | 90% | 90% | 100% | – | – | – | – | – | – | – | – | – | –
CCCOCCn1c(=O)ccc2cc(C(=O)C3C(=O)CCCC3=O)c(C(F)(F)F)nc21 [Compound 2.17] | – | – | – | – | – | – | – | – | – | – | 30 | 90 | 80 | 90 | 90 | 10 | 40 | 80 | 50 | 80
O=C1CCCC(=O)C1C(=O)c1cc2ccc(=O)n(CCF)c2nc1C(F)(F)F [Compound 2.11, 2-{8-(2-fluoroethyl)-7-oxo-7,8-dihydro-2-trifluoromethyl-[1,8]-naphthyridine-3-carbony}-cyclohexane-1,3-dione] | – | – | – | – | – | – | – | – | – | – | 90 | 100 | 90 | 90 | 100 | 40 | 60 | 100 | 90 | 100
Cc1nc2nc(C(F)(F)C(F)(F)F)c(C(=O)C3C(=O)CCCC3=O)cc2cc1F [Compound 1.94] | – | – | – | – | – | – | – | – | – | – | 60 | 100 | 80 | 80 | 90 | 20 | 100 | 100 | 100 | 90
